Test results reported in patent US7641897B2, “Feeder layer and serum independent embryonic stem cells” (The Board of Trustees of the Leland Stanford Junior …, priority 2004, dated 2010).

How the values were obtained:
Format in all cases: cell-based, murine
[1] = system: parental ES cell line (D3 ES cells); test: Self-renewal, differentiation and growth of ES cells in serum- and feeder-free culture with LIF and MAP kinase inhibitors
Procedure: (§1) FIG. 5A-5C. Effect of MAPK inhibitors on ES cell self-renewal. (A) Phase contrast image of parental ES cells cultured for 8 days (left), Bcl-2 ES cells cultured for 14 days (middle), and parental ES cells cultured with PD98059 for 14 days (right) in serum- and feeder-free conditions. (B) Growth curve of Bcl-2 ES cells (square) and parental ES cells cultured with 12.5 μM of PD98059 (circle) in serum- and feeder-free conditions. (C) Colony formation activity of parental (p) ES cells cultured without (Non) or with PD98059, and Bcl-2 ES cells at low cell density. Cultures were initiated with 200 cells per well (12 well-plate) and colonies were enumerated 7 days later.
(§2) Cell culture. D3 ES cells (Doetschman et al. (1985) J. Embryol. Exp. Morphol. 87:27-45) were maintained as previously described (Yamane et al. (1997) Blood 90:3516-3523), and clones expressing human Bcl-2 were established by co-transfecting parental D3 ES cells with the human Bcl2-IRES-EGFP transgene under control of the CAG promoter, and a puromycin resistance gene cassette. Bcl-2 ES cell clones were selected and expanded in the presence of puromycin. For serum-free cultures, ES cells are maintained in X-VIVO 15 (Cambrex) supplemented with 2 mM GlutaMax-1 (Gibco), 0.1 mM 2-mercaptoethanol, 1,000 U/mL ESGRO (Chemicon International), 100 U/mL penicillin (Gibco), and […] streptomycin (Gibco) on gelatin-coated dishes. Alternatively, IMDM/F12 (1:1) (Gibco) supplemented with 2 mM GlutaMax-1, 0.1 mM 2-mercaptoethanol, 0.1% polyvinyl alcohol (Sigma), 1× Insulin-Transferin-Selenium-X (Gibco), 1,000 U/mL ESGRO, 100 U/mL penicillin, and 100 mg streptomycin was used where indicated. Cells were dissociated with Cell Dissociation Buffer (Enzyme-Free, Hanks'-based, Gibco).
MAP kinase inhibitors. 1 μM SB203580 (Calbiochem) and 12.5 μM PD98059 (Calbiochem) were used as described (Qi et al. (2004) Proc. Natl. Acad. Sci USA 101, 6027-6032; Burdon et al. (1999) Dev. Biol. 210, 30-43).

parental ES cells = test: Colony formation activity at low cell density in serum- and feeder-free conditions; settings: 200 cells per well (12 well-plate), colonies enumerated 7 days later (FIG. 5C)
Procedure: as §1
as §2, with “Alternatively, IMDM/F12 (1:1) (Gibco) supplemented with 2 mM GlutaMax-1, 0.1 mM 2-mercaptoethanol, 0.1% polyvinyl alcohol (Sigma), 1× Insulin-Transferin-Selenium-X (Gibco), 1,000 U/mL ESGRO, 100 U/mL penicillin, and 100 mg streptomycin was used where indicated. Cells were dissociated with Cell Dissociation Buffer (Enzyme-Free, Hanks'-based, Gibco).” left out

[2] = system: Bcl-2, Bcl-xL, Mcl-1, Bax; test: Western blot analysis of Bcl-2 family members after BMP stimulation; settings: parental ES cells, serum- and feeder-free, treated with BMP4 for 6 hours (FIG. 4B)
Procedure: FIG. 4A-4B. Western blot analysis for Smad proteins and Bcl-2 family members. (A) Cell lysates of parental cells cultured in conventional conditions with serum [p(serum)], a Bcl-2 clone in serum and feeder-free conditions untreated (Bcl-2), or treated with BMP4 for 90 minutes (Bcl-2+BMP4) were analyzed for the presence of phospho-Smad1/5/8 by western blotting (upper panel). The same membrane was stripped and reprobed with anti-actin antibody (lower panel). The band denoted by an asterisk is a product of non-specific staining. (B) Western blot analysis of Bcl-2 family members was performed for parental ES cells in conventional conditions with serum (serum), and for parental ES cells in serum- and feeder-free conditions without (Non) or treated with BMP4 for 6 hours (BMP4).
Western blots. Cells were lysed in 50 mM Tris-Cl (pH7.5)/150 mM NaCl/1% Triton-X/1% protease inhibitor cocktail set III (Calbiochem)/1 mM EDTA/1 mM Na3Vo4/1 mM NaF and proteins were separated by SDS-PAGE under denaturing conditions and transferred to Immobilon-P membrane (Miilipore). After blocking with 5% milk, the membrane was incubated with primary antibodies against phospho-Smad1/5/8 (Cell Signaling Technology), actin (Sigma), Bcl-2 (Dako), Bcl-xL (BD Bioscience), Mcl-1 (ABGENT), or Bax (BD Bioscience), washed, and then incubated with HRP-conjugated secondary antibodies. […]

[3] = system: parental cell line (D3 ES cells); test: Viability of the parental cell line in serum- and feeder-free conditions with BMP; settings: addition of BMP
Excerpt: as §2

C[S+]([O-])c1ccc(-c2nc(-c3ccncc3)c(-c3ccc(F)cc3)[nH]2)cc1 (stereo not shown) [SB 203580]
effect on self-renewal and differentiation of ES cells ([1]; 1 μM SB203580, serum- and feeder-free conditions): did not show any effect

COc1cccc(-c2cc(=O)c3ccccc3o2)c1N [PD98059]
growth speed of parental cell line with inhibitor compared with Bcl-2 ES cells ([1]; 12.5 μM PD98059, serum- and feeder-free (FIG. 5B)): somewhat faster
differentiated cells which appeared during culture ([1]; parental ES cell line, 12.5 μM PD98059, serum- and feeder-free, 14 days (FIG. 5A)): dramatically reduced
continuous growth in serum- and feeder-free conditions in the presence of LIF without Bcl-2 ([1]; parental ES cells, 12.5 μM PD98059, crisis upon continued passaging (FIG. 5B)): supported the continuous growth
colony formation at low cell density (parental ES cells): could never support the colony formation

B1: BMP: bone morphogenic protein; BMP4 used for stimulation of ES cells (protein, UniProt P12644 293-408, looked up)
Bone morphogenetic protein 4: SPKHHSQRARKKNKNCRRHSLYVDFSDVGWNDWIVAPPGYQAFYCHGDCPFPLADHLNSTNHAIVQTLVNSVNSSIPKACCVPTELSAISMLYLDEYDKVVLKNYQEMVVEGCGCR
expression of Bcl-2, Bcl-xL, Mcl-1 anti-apoptotic proteins [2]: neither Bcl-2, Bcl-xL, or Mcl-1 anti-apoptotic proteins are up-regulated
viability of the parental cell line [3]: did not improve viability
